Results from publication PMC4999309, “Structures of TorsinA and its disease-mutant complexed with an activator reveal the molecular basis for primary dystonia” (eLife, 2016).

Molecular target: T1, TorsinAEQ-LULL1 (TorsinA-ATP-LULL1) (Homo sapiens, UniProt O14656+Q8NFQ8, O14656:E171Q)
T1 construct: gene TOR1A; TorsinA 51-332 (E171Q ATP trap), N-terminal 10xHis-7xArg tag cut by 3C; untagged luminal domain LULL1 233-470; co-expressed in E. coli with alpaca nanobody VHH-BS2 (crystallisation chaperone); heterodimer plus nanobody
Assay: X-ray crystal structure, […] Å
Assay type: binding
Conditions: 2 mM ATP, pH 6.5; crystallised with nanobody VHH-BS2; ATP in Walker A/B nucleotide site with LULL1 Arg449 finger

Nc1ncnc2c1ncn2[C@@H]1O[C@H](COP(=O)(O)OP(=O)(O)OP(=O)(O)O)[C@@H](O)[C@H]1O [ATP]
X-ray crystal structure, 1.40 Å: An ATP molecule is bound in the manner characteristic of P-loop NTPases
